Source: US5473057A, “Eleutherobin and analogs thereof” (The Regents of the University of California, priority 1994, dated 1995)
“Also recorded” adds a separate entry of the source. Like-named read-outs stand apart in the source and are kept apart here.

Experiments:
[1] = system: HCT116/VM46 human colon carcinoma subline, which overexpresses P-glycoprotein; assay: In vitro cytotoxicity in multidrug resistant subline HCT116/VM46 (XTT assay); format: cell-based; details: for fold resistance relative to corresponding parent cell line: HCT116/VM46 relative to HCT116, 4320 min; for IC50: Homo sapiens, HCT-116/VM46, HCT116/VM46, 72 hour exposure, XTT assay
Procedure: (§1) Eleutherobin and the above described analogs are useful as cytotoxic agents. The compounds are used in the same manner as other known cytotoxic agents. They may be used alone or in combination with suitable pharmaceutical carriers and other bioactive materials. They are used both in vitro and in vivo to kill a wide variety of cell types. […] For example, in vitro toxicity of eleutherobin was tested in the HCT116 human colon carcinoma cell line and a multidrug resistant subline, HCT116/VM46, which overexpresses P-glycoprotein and is over 100-fold resistant to taxol. […] The cytotoxicity of eleutherobin was also tested in a human ovarian carcinoma cell line A2780. Eleutherobin was also found to be cytotoxic with respect to the A2780 cell line.
(§2) ^1 Cytotoxicity was determined after 72 hour exposure by XTT assay.
^2 Value in parenthesis is fold resistance relative to corresponding

[2] = system: HCT116 human colon carcinoma cell line; assay: In vitro cytotoxicity in HCT116 (XTT assay); format: cell-based; details: for IC50: Homo sapiens
Procedure: as §1, §2

cancer cells = assay: Cytotoxicity, general statement; format: cell-based; details: in words
[3] = system: human ovarian carcinoma cell line A2780; assay: In vitro cytotoxicity in A2780 (XTT assay); format: cell-based; details: for IC50: Homo sapiens
Procedure: as §1, §2

[4] = in words, background art; cited from earlier work

CO[C@]12C=C[C@](C)(O1)[C@@H](OC(=O)/C=C/c1cn(C)cn1)C[C@H]1C(C)=CC[C@H](C(C)C)[C@H]1/C=C\2COC1OCC(O)C(O)C1OC(C)=O (some centres unmarked) [Eleutherobin]
fold resistance relative to corresponding parent cell line [1]: 52 fold
IC50 [1]: 554 nM
IC50 ([2]; HCT-116, 72 h): 10.7 nM
cytotoxicity in the HCT116 cell line compared with taxol ([2]; in words, HCT116): nearly as cytotoxic as taxol
cytotoxicity (cancer cells): effective cytotoxin; also recorded: cytotoxic with respect to cancer cells
IC50 ([3]; A2780, 72 h): 13.7 nM
cytotoxicity with respect to the A2780 cell line ([3]; in words, A2780): cytotoxic

CC(C)=CC(=O)O[C@H]1C[C@H]2C(C)=CC(=O)[C@H](C(C)C)[C@H]2/C=C(/C)[C@@]2(O)C=C[C@]1(C)O2 [Valdivone A]
anti-inflammatory activity [4]: anti-inflammatory activity

CC1=CC(=O)[C@H](C(C)C)[C@H]2/C=C(/C)[C@@]3(O)C=C[C@](C)(O3)[C@@H](OC(=O)Cc3ccccc3)C[C@@H]12 [Valdivone B]
anti-inflammatory activity [4]: anti-inflammatory activity

CC(=O)O[C@H]1C(=O)[C@@]2(C)[C@H]([C@H](OC(=O)c3ccccc3)[C@]3(O)C[C@H](OC(=O)[C@H](O)[C@@H](NC(=O)c4ccccc4)c4ccccc4)C(C)=C1C3(C)C)[C@]1(OC(C)=O)CO[C@@H]1C[C@@H]2O [paclitaxel (taxol), paclitaxel]
fold resistance relative to corresponding parent cell line [1]: 117 fold
fold resistance relative to corresponding parent cell line ([1]; listed as taxol): over 100 fold
IC50 [1]: 5.37 nM
IC50 ([2]; HCT-116, HCT116, 72 hour exposure, XTT assay, read-out: IC50): 4.6 nM
IC50 ([3]; A2780, 72 hour exposure, XTT assay, read-out: IC50): 6.7 nM
